Reference: US20220211914A1, “HYALURONIC ACID HYDROGELS WITH PROLONGED ANTIMICROBIAL ACTIVITY” (INSTITUT NATIONAL DE LA SANTE ET DE LA RECHERCHE MEDICALE …, priority 2019, published 2022)
“Also recorded” adds a separate entry of the source.

What was measured:
Balb/3T3 cells = experiment: Direct in vitro cytotoxicity test (ISO 10993) with MTT test; conditions: 24 h
Experimental: FIG. 14: Cell viability evaluation by MTT test. Balb/3T3 cells were seeded in 24-well plate and put in contact with HA hydrogel discs loaded or not with PARs for 24 h. HA discs correspond to BDDE-crosslinked HA hydrogel discs without PAR, and HA+PARs correspond to HA hydrogels loaded with different PAR concentrations (mg/mL). (A) Cell images after 24 h of direct in vitro cytotoxicity test. (B) Cell viability measured by MTT test. Dashed line corresponds to 70% viability (cytotoxicity limit).
Direct in vitro cytotoxicity test consists in putting material in contact with the cells for 24 h and performing MTT test to evaluate cell viability. According to ISO 10993, the tested material should cover approximately 1/10 of cell layer surface, which corresponds to ˜5 mm hydrogel discs per well of a 24-well plate.
After 24 h at 37° C., hydrogel discs were removed and MTT test was performed in order to measure cell metabolic activity, which often serves to estimate cell viability. […] The number of viable cells correlates to the colour intensity determined by photometric measurements after dissolving the formazan in alcohol (from ISO 10993).
So the discs, loaded or not with PAR, were sterilized and placed onto ˜80% confluent layer of Balb/3T3 cells. For MTT assay, the cells were incubated for 2 h in 0.2 mg/mL MTT-containing cell culture medium. The medium was then removed and formazan was dissolved in DMSO. Absorbance of resulting solutions was measured at 570 nm using spectrophotometer and images were taken around and under the discs to evaluate cell morphology.

bacteria = experiment: Repetitive culture of bacteria with PAR-loaded HA hydrogel discs (fresh bacteria every 24 h); type: cell-based; conditions: for duration of antibacterial effect in repetitive culture, additional test: additional test (FIG. 15); for lowest loading concentration showing antibacterial effect: loaded HA hydrogels
Experimental: Repetitive culture: after 24 h of bacterial culture, the samples were rinsed and seeded with fresh bacteria.
After 24 h of bacterial culture, the samples were rinsed and seeded with fresh bacteria.
Every 24 h of bacterial culture, the samples were seeded with fresh bacteria.

[1] = PAR-FITC release from HA hydrogels in MH and DMEM culture media; conditions: for release rate in MH: followed during 72 hours at 37° C. in MH; for release in DMEM/FBS relative to MH: 24 h of incubation at 37° C.
Experimental: Using FITC-labeled PARs of 10 units, 30 units and 200, the inventors evaluated their release at 37° C. from HA hydrogels in two different media.
They performed discs imaging after 24 h of incubation at 37° C. in MH (Mueller Hinton broth, bacterial culture medium) and in DMEM (Dulbecco's modified Eagle's medium+10% FBS+antibiotics, cell culture medium).
More specifically, PAR release from the hydrogels was followed during 72 hours in microbiological growth medium (MH) or cell culture medium (DMEM). PAR-FITC loaded hydrogels were placed into these media and incubated at 37° C., and PAR release was observed by confocal microscopy (FIG. 22).

[2] = PAR mobility inside HA hydrogels by FRAP; type: physicochemical; conditions: discs loaded with 0.5 mg/mL FITC-conjugated PAR for 24 h
Experimental: FIG. 8: PAR mobility inside HA hydrogels. HA discs were loaded with 0.5 mg/mL of three different FITC-conjugated PARs for 24 h and rinsed. Then, FRAP experiments were conducted. (A) Comparison of the fluorescence recovery of three PARs. (B) Determination of the diffusion coefficients D and percentage of mobile molecules p for three PARs.
Next, the inventors studied PARs mobility inside the hydrogels (FIG. 8) using FRAP (fluorescence recovery after photobleaching) technique. […] Quantitative parameters such as diffusion coefficient were also determined (FIG. 8B).

[3] = PAR-loaded hydrogel stability in Tris/NaCl buffer; type: physicochemical; conditions: 48 h at room temperature or at 37° C.
[4] = PAR-FITC release from HA hydrogel discs in NaCl 1 M (confocal microscopy, spectrofluorimetry); conditions: for release according to the confocal microscopy images: 72 h at 37° C. in NaCl 1M, discs loaded with 0.5 mg/mL PAR-FITC; for released PAR (from percentage remaining, image processing): 72 h in NaCl 1 M, 100% = fluorescence intensity before release; for PAR concentration contained in the discs: disc volume approximately 30 μL, loaded in 0.5 mg·mL^−1
Experimental: FIGS. 20-24: Release of PARs in NaCl and in culture media. HA discs were incubated with 0.5 mg·mL^−1 of three different FITC-conjugated PAR for 24 h. The discs were rinsed, then incubated for 72 h in NaCl 1 M, MH or DMEM.
More specifically, total amounts of PAR contained in the hydrogels were estimated by incubation of hydrogels loaded with fluorescently labelled PAR in concentrated NaCl to promote PAR release. […] The percentage of PAR remaining in the hydrogel discs after 72 h of incubation was measured with image processing; 100% corresponds to fluorescence intensity before release. […] Then, amounts of PAR-FITC released were quantified by measuring fluorescence intensity of the supernatant by spectrofluorimetry and referring to a calibration curve.

S. aureus = experiment: Antibacterial activity of PAR-loaded HA films, S. aureus culture, OD at 620 nm after 24 h; type: cell-based; conditions: loaded into HA hydrogels at 1 mg/mL; preliminary experiments
Experimental: FIG. 3: Bacterial growth on PAR pre-loaded and post-loaded HA films. Bacterial growth was evaluated after 24 h by optical density (OD) measurement at 620 nm. PARO corresponds to HA film without PAR. HA 2.5%+BDDE 20% films were added with 1 mg/mL PAR after cross-linking (=post-loaded films).
They assessed post-loading of PAR (adding 1 mg/mL solution of PAR onto cross-linked HA films). […] We also followed PAR release after 24 h from post-loaded films.
After 24 h, OD at 620 nm was measured and bacterial viability on the surfaces was assessed using BacLight Redox Sensor CTC Vitality kit (Molecular Probes) as a fluorescent marker.

[5] = Loading of PAR-FITC into HA hydrogel discs (CLSM images, fluorescence profiles); type: physicochemical; conditions: for distribution in hydrogel discs (fluorescent profiles): discs loaded with 0.5 mg/mL PAR-FITC
Experimental: FIG. 6: Loading of PAR30-FITC into HA hydrogel discs at different concentrations for 3 h and 24 h. (A) CLSM images (B) Quantification of PAR concentration in the center of the discs.
FIG. 7: Loading of PARs-FITC into HA hydrogel discs. CSLM images of HA hydrogel discs loaded with 0.5 mg/mL of three PARs labelled with FITC (on the left) and fluorescence profiles of the resulting discs (on the right).
To load PAR into the hydrogels, the discs were immersed in PAR solution and incubated at room temperature. For 4 mm discs in 24-well plate, 0.5 mL of PAR solution was used. Then the discs were rinsed with Tris/NaCl buffer two times: one short and one long (at least 1 hour) rinsing.
To visualize PAR loading and diffusion inside the hydrogels, they again used fluorescently-labelled PARs (PAR10-FITC, PAR30-FITC, PAR200-FITC).

[6] = hydrogels loaded with 0.05 mg/mL
[7] = 0.1 mg/mL-loaded hydrogels, fresh bacteria added every day
[8] = HA hydrogel discs loaded at 1 mg/mL

Row | Substance | cell viability by MTT test (Balb/3T3 cells; 0.1 mg/mL-loaded hydrogels) | cell viability by MTT test (Balb/3T3 cells; [6]) | duration of antibacterial effect in repetitive culture, additional test (bacteria; 0.1 mg/mL-loaded hydrogels) | duration of antibacterial effect in repetitive culture (bacteria; [7]) | duration of antibacterial effect in repetitive culture (bacteria; [8]) | lowest loading concentration showing antibacterial effect (bacteria) | release rate in MH [1] | mobility inside the hydrogels (qualitative, FRAP) [2] | PAR-FITC release in Tris/NaCl buffer [3] | release according to the confocal microscopy images [4] | released PAR (from percentage remaining, image processing) [4] | PAR concentration contained in the discs [4] | antibacterial activity (S. aureus) | distribution in hydrogel discs (fluorescent profiles) [5] | duration of antibacterial effect in repetitive culture (bacteria; HA hydrogel discs loaded at 0.5 mg/mL) | comparison of prolonged antibacterial effect among PAR lengths (bacteria; PAR10, PAR30, PAR200 loaded HA hydrogels, repetitive culture) | release in DMEM/FBS relative to MH [1] | diffusion into the disc center, 24 h vs. 3 h loading ([5]; PAR30-FITC loading for 3 h vs. 24 h)
1 | poly-L-arginine [PAR10] | good | good viability | 3 days | 2 days | 8 days | 0.05 mg/mL | faster | most mobile | no PAR-FITC release | almost complete | about 97% | about 7.3 mg·mL^−1 | antibacterial activity | more homogeneous distribution |  |  |  | 
2 | poly-L-arginine [PAR30] | good | good viability | 5 days | 4 days | 8 days | 0.05 mg/mL | released more gradually |  | no PAR-FITC release | ~80% | ~78% | ~6.7 mg/mL | antibacterial activity | more homogeneous distribution | 8 days | most prolonged antibacterial effect; also recorded: most efficient | higher than in MH | diffused more into the discs center
3 | poly-L-arginine [PAR200] |  |  |  |  | 7 days |  | released more gradually | least mobile | no PAR-FITC release | ~80% | ~78% | ~3.9 mg/mL | antibacterial activity |  |  |  | higher than in MH | 
